One molecule from US20220218712A1, “TREATMENT OF ALZHEIMER'S DISEASE” (Saint Louis University, priority 2019, published 2022) can be followed below.

Assay [1] relates to SAMP8 mice. The assay can be described thus: T-maze shock avoidance, acquisition and one-week retention. The class given is in vivo, mouse. Particulars: 12 month-old SAMP8 mice, 1 mg/kg IP every 48 hours for 5 weeks. Here is the method: FIG. 1 depicts the effects of a selective A3AR agonist, MRS5980, on learning and memory in 12 month-old SAMP8 mice. The selective A3AR agonist, MRS5980 (1 mg/kg, IP) or vehicle (saline) was given every 48 hours for 5 weeks starting at 12 months of age. Behavioral testing began after 3 weeks of treatment. NORPT—the Novel Object Recognition Protocol Test is a memory task that involves the hippocampus when, as performed herein, the retention interval is 24 hours after initial exposure to the two like objects. Mice received three 5 minutes habituation trials in an empty apparatus separated by 2 hours, the day prior to entry of the objects. During the training session, the mouse was exposed to two similar objects (plastic frogs) which it was allowed to examine for 5 minutes. The apparatus and the objects were cleaned between each trial to remove odor cures. Twenty-four hours later, the mouse was exposed to one of the original objects and a new novel object (plastic bird) and the time spent examining the objects was recorded. The results are expressed as Discrimination index=(Total new−Total old)/Total new+Total old)]. The novel object was made out of the same material as the original object and of the same size, but a different shape. The underlying concept of the NORPT is based on the tendency of mice to spend more time exploring new objects than familiar ones. Thus, the greater the retention/memory at 24 hours, the more time spent with the new object the higher the discrimination. […] Number of attempts before first successful avoidance of the shock in T-maze and retention (memory) for the T-maze one-week later was also determined. Retention was defined as number of trial to successfully avoid the shock 5 out of 6 consecutive trials. […] ANOVA followed by pairwise Tukey's post hoc test. Means±SEM; n=6-8/group; **p<0.01.

The test system of assay [2] is SAMP8 mice. Nature of the assay: Novel Object Recognition Protocol Test (NORPT). The assay is classed as in vivo, mouse. Particulars: 12 month-old SAMP8 mice, 1 mg/kg IP every 48 hours for 5 weeks. As to the method:
FIG. 1 depicts the effects of a selective A3AR agonist, MRS5980, on learning and memory in 12 month-old SAMP8 mice. The selective A3AR agonist, MRS5980 (1 mg/kg, IP) or vehicle (saline) was given every 48 hours for 5 weeks starting at 12 months of age. Behavioral testing began after 3 weeks of treatment. NORPT—the Novel Object Recognition Protocol Test is a memory task that involves the hippocampus when, as performed herein, the retention interval is 24 hours after initial exposure to the two like objects. Mice received three 5 minutes habituation trials in an empty apparatus separated by 2 hours, the day prior to entry of the objects. During the training session, the mouse was exposed to two similar objects (plastic frogs) which it was allowed to examine for 5 minutes. The apparatus and the objects were cleaned between each trial to remove odor cures. Twenty-four hours later, the mouse was exposed to one of the original objects and a new novel object (plastic bird) and the time spent examining the objects was recorded. The results are expressed as Discrimination index=(Total new−Total old)/Total new+Total old)]. The novel object was made out of the same material as the original object and of the same size, but a different shape. […] Number of attempts before first successful avoidance of the shock in T-maze and retention (memory) for the T-maze one-week later was also determined. […]

The mark [3] stands for this setting: vs old vehicle treated controls.

In the case of `CNC(=O)[C@@]12C[C@@H]1[C@@H](n1cnc3c(NC)nc(C#Cc4ccc(Cl)s4)nc31)[C@H](O)[C@@H]2O` [MRS5980], the “T-maze learning and retention” value in assay [1] (old treated mice vs young vehicle treated controls) was “no difference between the young vehicle treated controls and the old A3AR treated mice”. In addition, in assay [1] (setting [3]), the “Number of attempts before first successful avoidance of the shock in T-maze (learning)” value is “learned and remembered the T-maze better than the old vehicle treated controls”. Besides, the “Retention (memory) for the T-maze one-week later, trials to avoid the shock 5 out of 6 consecutive trials” value in assay [1] (setting [3]) was “remembered the T-maze better than the old vehicle treated controls”. Also, the “Discrimination index (memory at 24 hours) in NORPT” value in assay [2] (old treated mice vs young mice) is “no difference between the young mice and the old A3 AR treated mice”; in assay [2] (retention interval 24 hours, vs vehicle treated controls, **p<0.01) it was “significantly better memory than vehicle treated controls”.
